Like-named read-outs stand apart in the source and are kept apart here.
Tests used:
[1] = system: SOX17 in H9 human ESC line; details: SOX17 half-maximal inhibition concentration; read-out: hPST IC50; cited from earlier work
[2] = system: SOX17 (endoderm marker) in RUES2-GLR cells; assay: DevTox GLR-Endo assay: decrease in percent SOX17-positive cells (AEID 3094, Sox17_dn); details: for AC50 / Emax: Homo sapiens; for Hit Call: Table S2, SOX17-positive cells, cutoff 3*bmad; for DevTox ACC: Table S2, percent SOX17-positive cells, 48 h exposure; for HIT−CALL: tcpl plot AEID3094, COFF 20.3
Summary of the method: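 Readouts are loss of SOX17-positive fraction and reduced cell number in endoderm-differentiating RUES2-GLR cells after 48 h of chemical exposure. Controls: undifferentiated and differentiated cells, 0.2% DMSO, and 1 µM SB431542; at least four biological replicates.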

[3] = system: BRA (mesoderm marker) in RUES2-GLR cells; assay: DevTox GLR-Endo assay: increase in percent BRA-positive cells (AEID 3096, Bra_up); assay type: cell-based, human; details: for HIT−CALL: tcpl plot AEID3096, COFF 0.774; for MAX_MEAN: tcpl plot AEID3096, maximum mean response; for MAX_MED: tcpl plot AEID3096, maximum median response
Experimental: (§1) The total test chemical incubation period was 48 h.
(§2) (Supplementary Materials).

[4] = in vitro; details: human
[5] = system: RUES2-GLR cells; assay: DevTox GLR-Endo assay: decrease in total cell count, cytotoxicity (AEID 3098, CellCount_dn); details: for Emax: Homo sapiens, read-out: Cell Count % Max Inhibition
[6] = system: H9 human ESC line; details: cited from earlier work
[7] = system: SOX2 (ectoderm and pluripotency marker) in RUES2-GLR cells; assay: DevTox GLR-Endo assay: increase in percent SOX2-positive cells (AEID 3095, Sox2_up); details: for MAX_MEAN: tcpl plot AEID3095, maximum mean response; for MAX_MED: tcpl plot AEID3095, maximum median response; for AC50 / Emax: Homo sapiens; for AC50: read-out: ga (winning model); for Emax: read-out: tp (winning model);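 as to all read-outs here: cells exposed to test chemicals for 48 h in total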
[8] = system: SOX17 (endoderm marker) in RUES2-GLR cells; assay: DevTox GLR-Endo assay: increase in percent SOX17-positive cells (AEID 3093, Sox17_up); assay type: cell-based, human; details: for Emax: Homo sapiens; for HIT−CALL: tcpl plot AEID3093, COFF 20.3
Experimental: as §1, §2

[9] = cited from earlier work; for Development Toxicant Classification: Table S2; for Classification: developmental toxicant classification (Teratogen / Non-Teratogen) of reference and training chemicals, ref DOI per chemical: 10.1093/toxsci/kft239, 10.1093/toxsci/kfaa014, 10.1177/026119290203000204, 10.1038/s41598-020-59542-x; for DT Class.: developmental toxicant classification; for Developmental Toxicant Classification: reference chemicals
[10] = 48 h, read-out: DevTox-GLR Endo AC50 (µM), SOX17 half-maximal activity concentration, 48 h exposure
[11] = read-out: DevTox % Max Inhibition
[12] = cytotoxicity half-maximal concentration
[13] = tcpl plot AEID3093, maximum mean response, read-out: MAX_MEAN
[14] = tcpl plot AEID3093, maximum median response, read-out: MAX_MED
[15] = RUES2-GLR cells under directed endoderm differentiation
[16] = chemicals common with quickPredict
[17] = read-out: ga (winning model), tcpl plot AEID3094, gain parameter of winning curve fit (log concentration, µM axis), hit calls only (converted)

Row | SMILES | IC50 [1] [µM] | AC50 [2, 10] [µM] | Emax [2, 11] [%] | Emax ([2]; read-out: MAX_MEAN) [%] | Emax ([2]; read-out: MAX_MED) [%] | Hit Call [2] | DevTox ACC [2] [µM] | HIT−CALL [2] | Emax [5] [%] | Cell Count ACC ([5]; human, 48 h) [µM] | hPST TC50 [6, 12] [µM] | hPST TC50 ([6]; hPST cytotoxicity) [µM] | MAX_MEAN [7] [Percent Activity] | MAX_MED [7] [Percent Activity] | Emax [8, 13] [%] | Emax [8, 14] [%] | HIT−CALL [8] | Development Toxicant Classification [9] | Classification [9] | DT Class. ([9]; chemicals common with hPST) | further results
1 | CC1(C)S[C@@H]2[C@H](NC(=O)Cc3ccccc3)C(=O)N2[C@H]1C(=O)O [Penicillin G] | > 400 | > 200 | 10.3 | 12.2 | 10.3 | Negative | >200 | 0 | 13.3 | >200 | >400 | > 400 | 2.17 | 0.88 | 13.2 | 12.4 | 0 | – | – | – | HIT−CALL [3]: 0; MAX_MEAN [3]: 0.857 Percent Activity; MAX_MED [3]: 0.92 Percent Activity; CC50 at 48 h [4]: > 200 µM
2 | CC(=O)Oc1ccccc1C(=O)O [Aspirin] | > 200 | > 200 | 12.4 | 13.1 | 12.4 | Negative | >200 | 0 | 2.85 | >200 | >200 | > 200 | 0.503 | 0.512 | -3.36 | -3.07 | 0 | Negative | Non-Teratogen | Neg | HIT−CALL [3]: 1; MAX_MEAN [3]: 1.04 Percent Activity; MAX_MED [3]: 1.03 Percent Activity; CC50 at 48 h [4, 15]: > 200 µM; DT Class. [9, 16]: Neg; Developmental Toxicant Classification [9]: Negative
3 | O=C1NS(=O)(=O)c2ccccc21 [Saccharin] | > 400 | > 200 | 13 | 11 | 13 | Negative | >200 | 0 | 17.9 | >200 | >400 | > 400 | 0.945 | 0.563 | 10.2 | 10.9 | 0 | Negative | Non-Teratogen | Neg | HIT−CALL [3]: 0; MAX_MEAN [3]: 1.1 Percent Activity; MAX_MED [3]: 1.04 Percent Activity; CC50 at 48 h [4]: > 200 µM; DT Class. [9, 16]: Neg; Developmental Toxicant Classification [9]: Negative
4 | O=C(c1ccc(F)cc1)C1CCN(CCn2c(=O)[nH]c3ccccc3c2=O)CC1 [Ketanserin] | > 200 | 36.6 | 33.3 | 36.9 | 33.3 | Positive | 39.2719 | 1 | 68.7 | 33.5346 | >200 | > 200 | 1.16 | 1.15 | 5.18 | 5.62 | 0 | Negative | Non-Teratogen | Neg | hit call designation (in words) ([2]; DevTox GLR-Endo prediction against developmental toxicant classification): false positive; AC50 [2, 17]: 36.3 µM; Emax ([2]; read-out: tp (winning model)): 31.8%; HIT−CALL [3]: 0; MAX_MEAN [3]: 1.82 Percent Activity; MAX_MED [3]: 2.05 Percent Activity; CC50 at 48 h [4]: 57.5 µM
5 | c1cc(-c2cnn3cc(-c4ccc(OCCN5CCCCC5)cc4)cnc23)ccn1 [Dorsomorphin] | 0.3 | 17.1 | 99.6 | 99.4 | 99.6 | Positive | 8.65 | 1 | 95.1 | 6.307 | 2.4 | 2.4 | 16.8 | 17 | 9.04 | 8.93 | 0 | Positive | Teratogen | Pos | AC50 [2, 17]: 17 µM; Emax ([2]; read-out: tp (winning model)): 114%; CC50 at 48 h [4]: 16.7 µM; AC50 [7]: 10.7 µM; Emax [7]: 38.7%
6 | O=c1[nH]c(=O)n([C@H]2C[C@H](O)[C@@H](CO)O2)cc1Br [5-Bromo-2’-deoxyuridine] | 0.2 | 0.55 | 102 | 102 | 102 | Positive | 0.4591 | 1 | 87.6 | 3.994 | 3.4 | 3.4 | 2.12 | 2.23 | -2.88 | -2.98 | 0 | Positive | Teratogen | Pos | SOX17 ACC relative to cytotoxic concentration (in words) [2]: below cytotoxic concentrations; AC50 [2, 17]: 0.548 µM; Emax ([2]; read-out: tp (winning model)): 101%; CC50 at 48 h [4]: 9.37 µM; AC50 [7]: 13.2 µM; Emax [7]: 2.13%
7 | Cc1nc(Nc2ncc(C(=O)Nc3c(C)cccc3Cl)s2)cc(N2CCN(CCO)CC2)n1 [Dasatinib] | < 1 | 0.72 | 102 | 102 | 102 | Positive | 0.3299 | 1 | 96 | 0.005325 | <1 | < 1 | 63.7 | 64.4 | 5.98 | 3.77 | 0 | Positive | Teratogen | Pos | AC50 [2, 17]: 0.721 µM; Emax ([2]; read-out: tp (winning model)): 102%; CC50 at 48 h [4]: 0.05 µM; AC50 [7]: 148 µM; Emax [7]: 85.8%
8 | COc1cc2c(Nc3ccc(Br)cc3F)ncnc2cc1OCC1CCN(C)CC1 [Vandetanib] | 3.5 | 4.9 | 102 | 102 | 102 | Positive | 4.123 | 1 | 98.3 | – | 4.4 | 4.4 | 10.9 | 10.8 | 7.33 | 9.78 | 0 | Positive | Teratogen | Pos | AC50 [2, 17]: 4.91 µM; Emax ([2]; read-out: tp (winning model)): 101%; CC50 at 48 h [4, 15]: 4.32 µM; Cell Count ACC ([5]; Table S2, 48 h exposure): 2.124 µM; AC50 [7]: 7.23 µM; Emax [7]: 23.1%
9 | CNC(=O)c1cc(Oc2ccc(NC(=O)Nc3ccc(Cl)c(C(F)(F)F)c3)cc2)ccn1 [Sorafenib] | < 2 | 0.62 | 102 | 102 | 102 | Positive | 0.5004 | 1 | 95.8 | – | <2 | < 2 | 13.6 | 11.9 | 8.73 | 9.19 | 0 | Positive | Teratogen | Pos | AC50 [2, 17]: 0.618 µM; Emax ([2]; read-out: tp (winning model)): 101%; CC50 at 48 h [4, 15]: 0.61 µM; Cell Count ACC ([5]; Table S2, 48 h exposure): 0.4993 µM; AC50 [7]: 0.748 µM; Emax [7]: 8.9%
